US6972319B1, “Pituitary adenylate cyclase activating peptide (PACAP)receptor 3 (R3) agonists and their pharmacological methods of use” (priority 1999, dated 2005)
No end group written: not given here.

Assays:
PACAP-R2 = target: T1, PACAP-R2 (Homo sapiens, UniProt P32241); assay: Cyclic AMP SPA on CHO cells transfected with PACAP-R2; format: cell-based; details: cAMP SPA, concentration at which 50% of maximum PACAP27 activity is achieved, NA = no detectable activities, read-out: R2 EC50
T1 construct: expressed in transfected cells; host or cells: CHO cells
T1 sequence (P32241 31-457): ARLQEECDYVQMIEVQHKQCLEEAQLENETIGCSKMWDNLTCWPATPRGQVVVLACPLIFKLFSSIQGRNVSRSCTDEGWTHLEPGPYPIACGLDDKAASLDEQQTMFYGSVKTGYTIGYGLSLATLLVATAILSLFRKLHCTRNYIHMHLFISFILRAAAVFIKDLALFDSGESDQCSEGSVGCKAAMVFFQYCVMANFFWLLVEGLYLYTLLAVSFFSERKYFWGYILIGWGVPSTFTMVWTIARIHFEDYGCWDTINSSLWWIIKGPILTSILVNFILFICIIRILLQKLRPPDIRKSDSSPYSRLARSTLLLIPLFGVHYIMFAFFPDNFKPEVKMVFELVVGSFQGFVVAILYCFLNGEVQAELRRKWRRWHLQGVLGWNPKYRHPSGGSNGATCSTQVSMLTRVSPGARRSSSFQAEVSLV
Description: CHO cells expressing the PACAP R3 were plated in 96-well plates (Costar) at 8×10^4 cell/well and grown at 37 C. for 24 hours in α MEM+nucleosides+glutamine (Giobco BRL), 10% FBS, 100 μg/ml Pen/Strep, 0.3 mg/ml glutamine, 1 mM HEPES, 0.5 mg/ml Geneticin (Gibco BRL). The media was removed and the plates were washed with PBS. The cells were incubated with a peptide, in Hepes-PBS-BSA with 0.4 mg/mlSoybean Trypsin Inhibitor, 0.5 mg/ml Bacitracin, 100 uM IBMX, for 15 min at 37 C. Cyclic AMP in the cell extracts was quantitated using the cAMP SPA direct screening assay system (Amersham Pharmacia Biotech Inc, Piscataway, N.J.,). The peptides shown in Table 3 were assayed for cAMP activity.
EC50 is defined as the concentration of the polypeptide at which 50% of maximum PACAP27 activity is achieved. “NA” denotes no detectable activities. “R3 Selectivity” is derived from the ratio of EC50 at R2 versus EC50 at R3.

PACAP-R3 = target: T2, PACAP-R3 (Homo sapiens, UniProt P41587); assay: Cyclic AMP SPA on CHO cells expressing PACAP R3; format: cell-based; parameters: expressed in transfected cells; host or cells: CHO cells (Geneticin selection); details: for EC50: cAMP SPA, CHO cells transfected with PACAP-R3, concentration at which 50% of maximum PACAP27 activity is achieved, NA = no detectable activities, read-out: R3 EC50; for R3 Selectivity: ratio of EC50 at R2 versus EC50 at R3
T2 sequence (P41587 24-438): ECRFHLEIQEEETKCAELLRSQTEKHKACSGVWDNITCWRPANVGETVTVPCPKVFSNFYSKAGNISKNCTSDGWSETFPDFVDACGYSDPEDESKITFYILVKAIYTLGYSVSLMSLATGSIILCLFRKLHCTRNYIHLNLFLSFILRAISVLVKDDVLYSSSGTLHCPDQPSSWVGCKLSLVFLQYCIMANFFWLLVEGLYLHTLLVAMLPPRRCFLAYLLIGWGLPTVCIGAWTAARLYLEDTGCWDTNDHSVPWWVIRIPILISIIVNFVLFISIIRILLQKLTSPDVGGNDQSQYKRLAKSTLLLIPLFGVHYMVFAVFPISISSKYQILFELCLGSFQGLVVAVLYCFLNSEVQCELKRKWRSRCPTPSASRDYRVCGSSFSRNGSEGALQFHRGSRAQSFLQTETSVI
Summary of the method: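 CHO cells expressing human PACAP-R2 or PACAP-R3 were exposed to peptide for 15 min at 37 °C with 100 μM IBMX and protease inhibitors. cAMP was measured by SPA. EC50 is the concentration giving 50% of maximal PACAP27 activity, and R3 selectivity is EC50(R2)/EC50(R3).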

Row | Molecule | EC50 (PACAP-R2) | EC50 (PACAP-R3) | R3 Selectivity (PACAP-R3)
1 | HSDAVFTDNYTRLRKQMAAKKYLNSIKNKA [Peptide R3P153] | 40 nM | 0.2 nM | 200
2 | H-HSDAVFTDNYTRLRKQMAAKKYLNSIQNKR [Peptide R3P127] | 300 nM | 0.5 nM | 600
3 | HSDAVFTDNYTRLRKQVAAKKYLQSILNK [Peptide R3P94] | 9 nM | 0.09 nM | 100
4 | HSDAVFTDNYTRLRKQMAAKKYLNSILN [Peptide R3P47] | 0.7 nM | 0.12 nM | 6
5 | CC[C@H](C)[C@H](NC(=O)[C@H](CO)NC(=O)[C@H](CC(N)=O)NC(=O)[C@H](CC(C)C)NC(=O)[C@H](Cc1ccc(O)cc1)NC(=O)[C@H](CCCCN)NC(=O)[C@H](CCCCN)NC(=O)[C@@H](NC(=O)[C@H](C)NC(=O)[C@H](CCSC)NC(=O)[C@H](CCC(N)=O)NC(=O)[C@H](CCCCN)NC(=O)[C@H](CCCNC(=N)N)NC(=O)[C@H](CC(C)C)NC(=O)[C@H](CCCNC(=N)N)NC(=O)[C@@H](NC(=O)[C@H](Cc1ccc(O)cc1)NC(=O)[C@H](CC(N)=O)NC(=O)[C@H](CC(=O)O)NC(=O)[C@@H](NC(=O)[C@H](Cc1ccccc1)NC(=O)[C@@H](NC(=O)[C@H](C)NC(=O)[C@H](CC(=O)O)NC(=O)[C@H](CO)NC(=O)[C@@H](N)Cc1c[nH]cn1)C(C)C)[C@@H](C)O)[C@@H](C)O)C(C)C)C(=O)N[C@@H](CCCCN)C(=O)N[C@@H](CC(N)=O)C(=O)N[C@@H](CCCCN)C(=O)N[C@@H](CCCNC(=N)N)C(=O)N[C@@H](Cc1ccc(O)cc1)C(=O)O [Peptide R3P59] | 10 nM | 0.15 nM | 70
6 | HSDAVFTDNYTRLRKQMAVKKYLNSIKK-NH2 [Peptide R3P8] | 2 nM | 1.4 nM | 1.5
7 | HSDAVFTDNYTRLRKQMASKKYLNSIPNRI [rR3P183] | > 150 nM | 5.4 nM | >30
8 | HSDAVFTDNYTRLRKQMAAKKYLNSIKKK [Peptide R3P54] | > 100 nM | 0.5 nM | >200
9 | HSDGIFTDSYSRYRKQMAVKKYLAAVKKYLAAVRHG-NH2 [Peptide R3P17] | 9 nM | 4 nM | 2
10 | HSDAVFTDNYTRLRKQMASKKYLNSIQNRI [rR3P188] | 150 nM | 2.2 nM | 70
11 | HSDAVFTDNYTRLRKQMAAKKYLNSILK [Peptide R3P50] | 0.7 nM | 0.13 nM | 6
12 | HSDAVFTDNYTRLRKQMAVKKYLNDLKKGGT [Peptide R3P14] | 50 nM | 17 nM | 3
13 | HSDAVFTDNYTRLRKQMAGKKYLNSIKNRI [rR3P175] | 400 nM | 2.2 nM | 180
14 | HSDAVFTDNYTRLRKQMAAKKYLNSIKNQR [Peptide R3P146] | 30 nM | 0.3 nM | 100
15 | HSDAVFTDNYTRLRKQMARKKYLNSIPNRI [rR3P182] | 280 nM | 3.2 nM | 90
16 | HSDAVFTDNYTRLRKQMAAKKYLNSIVNKR [Peptide R3P131] | 20 nM | 0.3 nM | 70
17 | HSDAVFTDNYTRLRKQMAYKKYLNSIKNKR [Peptide R3P115] | 300 nM | 6 nM | 50
18 | HSDAVFTDNYTRLRKQMARKKYLNSIKNRI [rR3P177] | 110 nM | 1.6 nM | 70

Row | Molecule | EC50 (PACAP-R2) | EC50 (PACAP-R3) | R3 Selectivity (PACAP-R3)
19 | HSDAVFTDQYTRLRKQMAAKKYLNSIKNKRY [Peptide R3P71] | 56 nM | 0.09 nM | 660
20 | HSDAVFTDNYTRLRKQMAAKKYLNSIANKR [Peptide R3P116] | 20 nM | 1 nM | 20
21 | HSDAVFTDNYTRLRKQMAAKKYLNSINNKR [Peptide R3P125] | 60 nM | 2 nM | 30
22 | H-HSDAVFTDNYTRLRKQMAKKKYLNSIKNKR [Peptide R3P104] | 100 nM | 0.2 nM | 500
23 | HSDAVFTDNYTRLRKQMAAKKYLNSIKNKN [Peptide R3P164] | 100 nM | 0.3 nM | 300
24 | HSDAVFTDNYTRLRKQMAVKKYLNSIKK [Peptide R3P41] | 8 nM | 0.08 nM | 100
25 | HSDAVFTENYTRLRKQMAVKKYLNSLKK-NH2 [Peptide R3P7] | 2 nM | 4 nM | 0.5
26 | HSDAVFTDNYTRLRKQMAAKKYLNSIKNPR [Peptide R3P145] | 50 nM | 0.5 nM | 100
27 | HSDAVFTDNYTRLRKQMAAKKYLNSIKNLR [Peptide R3P142] | 6 nM | 0.2 nM | 30
28 | HSDAVFTDNYTRLRKQMAVKKYLNDILN [Peptide R3P48] | 1 nM | 0.13 nM | 8
29 | HSDAVFTDNYTRLRKQMAVKKYLNSIKKKR [Peptide R3P57] | 42 nM | 0.23 nM | 190
30 | HSDAVFTDNYTRLRKQVAVKKYLQSILKK [Peptide R3P89] | 0.9 nM | 0.06 nM | 15
31 | HSDAVFTDNYTRLRKQMAAKKYLNSIKNKK [Peptide R3P161] | 60 nM | 0.2 nM | 300
32 | HSDAVFTDNYTRLRKQMAAKKYLNSIRNKR [Peptide R3P128] | 60 nM | 0.3 nM | 200
33 | H-HSDGIFTESYSRYRKQMAVKKYLAALKKKRYKQRVKNK [Peptide R3P6] | 220 nM | 80 nM | 3
34 | HSDAVFTDNYTRLRKQMAAKKYLNSIWNKR [Peptide R3P132] | 10 nM | 0.2 nM | 50
35 | HSDAVFTDNYTRLRKQMAAKKYLNSIKNKV [Peptide R3P169] | 60 nM | 0.2 nM | 300
